Laboratory results from patent US20090055945A1, “Method for Producing Nuclear-Transplanted Egg” (priority 2005, published 2009).

Test system: nuclear transfer oocytes (nuclei from cumulus cells in enucleated oocytes)
Assay: Expanded blastocyst formation of nuclear transfer oocytes (cumulus cell nuclei)
Type: cell-based, mouse
Method: Production of cloned mice including production of nuclear transfer embryos was carried out according to the method as described in Non-patent Document 5. Briefly, pregnant mare serum gonadotrophin (PMSG) was first administered to 8-weeks-old female B6D2F1 (C57BL/6 XDBA/2) mice (Japan SLC) for superovulation treatment. Human choriogonadotropin (hCG) was administered after 48 hours. Oocytes were collected after 16 hours. Nuclei were removed from the collected unfertilized oocytes in the presence of 5 μg/ml of cytochalasin B using a micromanipulator (enucleation).
Next, cell membranes of cumulus cells from a B6D2F1 mouse as donor somatic cells suspended in a 1.2% polyvinylpyrrolidone (PVP) solution were destroyed using an injection pipette, and the nuclei were injected into the enucleated oocytes using a micromanipulator (nuclear transfer). A piezo drive apparatus (Prime Tech) was used to generate piezo-pulses for penetration of zona pellucida or cell membranes which is required for injection of nuclei.
The thus obtained nuclear transfer oocytes were cultured in a CO2 incubator at 37° C. for 30 minutes to 1 hour. The oocytes were then transferred to an oocyte activation solution (Ca^2+-free CZB medium supplemented with 5 mM strontium chloride (SrCl2) and 5 μg/ml of cytochalasin B (Non-patent Document 10)) containing 0.5, 5, 50 or 500 nM trichostatin A (hereinafter referred to as TSA) to artificially activate the oocytes and initiate the development. Activation of oocytes was confirmed 6 hours after the initiation of activation using pronuclei formation as an index. Activated nuclear transfer oocytes were transferred to KSOM medium (Specialty Media) containing TSA at the same concentration, and cultured for further 14 hours (for 20 hours after the initiation of activation) in the medium. For a control, dimethyl sulfoxide (DMSO), which was used for dissolving TSA, was used in place of TSA to produce the same concentration.
Then, the nuclear transfer embryos at the 2-cell stage were cultured in KSOM medium without TSA until 96 hours after the initiation of activation, and development into expanded blastocysts was observed. The development into expanded blastocyst was confirmed by culturing for 96 hours after the initiation of activation and then observing under a microscope one in which the volume of embryo was increased to result in expansion of the blastocyst and thinning of zona pellucida among blastocysts having blastocoels. 80 or more embryos were examined in each of the experimental groups of the respective concentrations.
The ratio of the developed blastocysts to the number of nuclear transfer oocytes used (blastocyst formation rate (%)) was determined. The ratio of the developed expanded blastocysts to the number of oocytes that initiated cleavage (i.e., developed into the 2-cell stage) among the reconstructed nuclear transfer oocytes (blastocyst formation rate (%)) was determined.
Nuclear transfer oocytes were produced by injecting nuclei from cumulus cells into enucleated oocytes according to the method as described in Example 1, cultured in KSOM medium containing TSA at a concentration of 5 nM for various periods of time (for 0, 24, 48 or 72 hour(s) from the initiation of activation), and then cultured in KSOM medium without TSA until 96 hours after the initiation of activation. Then, development into expanded blastocysts was observed and the blastocyst formation rate was determined. […]

CC(/C=C/C(=O)NO)=C\[C@@H](C)C(=O)c1ccc(N(C)C)cc1 [TSA, trichostatin A]
blastocyst development rate compared with the case without TSA (TSA 5 nM for 24 or 48 hours from initiation of activation, FIG. 4): increased
blastocyst development rate among treatment periods (TSA 5 nM for 10 hours after initiation of activation, FIG. 5): highest
increase in blastocyst development rate (TSA 5 nM for 24 hours from initiation of activation): about 4 fold
development rate compared with the case without TSA (TSA 5 nM for 72 hours from initiation of activation): reduced
blastocyst formation rate compared with the case without TSA (TSA 5, 50 or 500 nM, 20 hours after initiation of activation, observed at 96 hours, FIG. 2): increased
